{"source": "paper PMC9377006", "about": "“Discovery of Desmuramylpeptide NOD2 Agonists with Single-Digit Nanomolar Potency” (ACS Medicinal Chemistry Letters, 2022)", "key": {"[1]": {"target": "T1, human NOD2 (Homo sapiens, UniProt Q9HC29)", "T1 construct": "host or cells: HEK-Blue NOD2 cells (derived from HEK293)", "T1 sequence (Q9HC29 whole entry)": "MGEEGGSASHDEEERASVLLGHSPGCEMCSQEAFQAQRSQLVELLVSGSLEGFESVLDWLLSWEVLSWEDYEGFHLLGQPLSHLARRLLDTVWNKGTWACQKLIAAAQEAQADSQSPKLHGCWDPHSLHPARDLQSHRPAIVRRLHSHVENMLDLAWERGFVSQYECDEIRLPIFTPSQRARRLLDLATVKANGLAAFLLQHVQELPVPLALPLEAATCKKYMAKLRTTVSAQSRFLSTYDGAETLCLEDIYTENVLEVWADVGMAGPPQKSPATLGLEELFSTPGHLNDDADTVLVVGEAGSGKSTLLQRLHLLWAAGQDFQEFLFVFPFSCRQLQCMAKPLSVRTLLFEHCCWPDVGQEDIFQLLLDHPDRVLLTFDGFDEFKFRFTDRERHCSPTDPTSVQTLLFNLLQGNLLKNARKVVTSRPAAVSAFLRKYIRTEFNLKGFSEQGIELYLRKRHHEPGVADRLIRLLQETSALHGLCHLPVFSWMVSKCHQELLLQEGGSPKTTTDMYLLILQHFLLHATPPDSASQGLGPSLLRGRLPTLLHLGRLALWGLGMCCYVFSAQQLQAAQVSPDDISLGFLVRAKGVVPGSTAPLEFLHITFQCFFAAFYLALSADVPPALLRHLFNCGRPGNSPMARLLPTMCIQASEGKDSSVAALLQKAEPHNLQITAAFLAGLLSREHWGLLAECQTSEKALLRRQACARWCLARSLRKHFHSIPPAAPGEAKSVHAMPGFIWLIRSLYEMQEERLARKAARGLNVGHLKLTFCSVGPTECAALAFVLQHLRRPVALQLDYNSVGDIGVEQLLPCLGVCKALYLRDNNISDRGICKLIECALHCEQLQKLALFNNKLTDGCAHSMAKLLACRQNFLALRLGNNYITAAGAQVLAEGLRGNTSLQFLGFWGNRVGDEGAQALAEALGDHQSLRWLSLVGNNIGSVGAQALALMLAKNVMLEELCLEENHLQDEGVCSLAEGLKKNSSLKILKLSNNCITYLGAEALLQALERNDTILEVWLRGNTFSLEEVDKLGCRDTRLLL", "experiment": "HEK-Blue NOD2 NF-κB SEAP reporter assay (NOD2 agonistic activity)", "assay_type": "cell-based", "description": "The synthesized desmuramylpeptides were evaluated for their dose-dependent NOD2 activity using the commercially available HEK-Blue NOD2 reporter cell line. This cell line is derived from HEK293 cells by cotransfection of human NOD2 and an NF-κB-inducible secreted embryonic alkaline phosphatase (SEAP). Activation of NOD2 and subsequently of NF-κB leads to the expression and secretion of SEAP, the level of which can be quantified colorimetrically. […]\ntwo passages, 200 µg/mL Zeocin (Invivogen) was added to the medium every other passage to maintain selection pressure. The cells were incubated in a humidified atmosphere at 37 °C and 5% CO 2. […]\nAldrich), and 100 µg/mL streptomycin (Sigma -Aldrich).\nThe tested compounds were dissolved in DMSO and further di luted in culture medium to the desired final concentrations, such that the final DMSO concentration never exceeded 0.1%. […]\n4.6 NOD1/NOD2-NF-kB reporter assay\nHEK-Blue NOD2 or NOD1 cells were seeded (25,000 cells/well) in 96 -well plates in 100 µL HEK-Blue detection medium (Invivogen, San Diego, CA, USA) and treated with compounds ( 2 µM for fixed […]\nthe corresponding vehicle (0.1% DMSO). After 18 h of incubation (37 °C, 5% CO2), secreted embryonic alkaline phosphatase (SEAP) activity was determined spectrophotometrically as absorbance at 630 nm (BioTek Synergy microplate reader; Winooski, VT, USA). EC50 values were calculated using Prism software (version 9; GraphPad Software, CA, USA). The experiments were run in duplicates and repeated as at least three independent biological replicates. […]"}, "[2]": {"system": "RAW-Blue cells", "experiment": "NF-κB transcriptional response in RAW-Blue reporter cells", "assay_type": "cell-based, mouse", "details": "1 µM, 18 h, with or without NOD2 antagonist SG84 10 µM", "description": "Given that cells of the monocyte-macrophage lineage are among the primary responders to NOD2 stimuli,[28] we also examined the effect of 40 on the NF-κB transcriptional response in RAW-Blue reporter cells. These cells, which, similarly to the HEK-Blue cells described above, stably express an NF-κB-inducible SEAP reporter gene, are derived from RAW264.7 mouse macrophages, which in addition to NOD2 also express NOD1 and most Toll-like receptors (TLRs).\nFigure S4. NF-kB transcriptional response in the RAW-Blue mouse macrophage reporter cell line. […] Statistical significance was determined by one-way ANOVA followed by Bonferroni’s multiple comparisons test; ***, p < 0.001 versus vehicle-treated control; ###, p < 0.001 versus MDP, 40, or LPS alone; ns, not significant. […]\nRAW-Blue cells were seeded (100,000 cells/well) in 96 -well plates in 200 µL growth medium (without Normocin and Zeocin) and treated with MDP (1 µM) or 40 (1 µM), in the presence or absence of LPS ( 10 ng/mL), or the corresponding vehicle (0.1% DMSO). […] After 2 h of incubation (37 °C), SEAP activity was determined spectrophotometrically as absorbance at 630 nm (BioTek Synergy microplate reader; Winooski, VT, USA). […]\nCytokine production was determined with BD Cytometric Bead Array human inflammatory cytokines kit […]"}}, "data": [{"molecule": "CCOC(=O)CC[C@@H](NC(=O)[C@@H](NC(=O)CNC(=O)/C=C/c1ccc(OC(=O)CC23CC4CC(CC(C4)C2)C3)c(OC)c1)C(C)C)C(=O)OCC", "note": "[Compound 40]", "values": [{"measurement": "EC50", "setting": "[1]; HEK-Blue NOD2 cells, 18 h, means ± SEMs of at least three independent experiments, 8 or 16 concentrations (0.1 nM to 20 μM)", "value": "4.5 ± 1.1", "unit": "nM"}, {"measurement": "improvement of activity relative to 1", "setting": "[1]; NOD2 EC50 versus compound 1", "value": 20, "unit": "factor"}, {"measurement": "activation of RAW-Blue cells (NF-κB transcriptional response)", "setting": "[2]", "value": "activate RAW-Blue cells in a NOD2-dependent manner"}]}]}
